Source: PubChem BioAssay (NCI)
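Interpolation was linear, between the two tested concentrations surrounding the appropriate level; five concentrations were tested over 48 hours in 96-well plates. At the GI50, growth is halved. TGI denotes the concentration required for complete inhibition of growth.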 Where a SMILES comes first, the peptide text is derived from it. Bridges are numbered along the chain shown (N, C = ends). Roman numbers before positions name the chains, in order. [ ]: non-standard residue; d: D form. The star is where a group is joined. Quinoxaline2carbonyl = O=C(c1cnc2ccccc2n1)*; NMeV = CN[CH](C(=O)O)C(C)C; NMeC = CN[CH](CS)C(=O)O

Tests used:
Test in all cases: DTP human tumour cell line panel, 48 h
[1] = system: ACHN renal
[2] = system: HCC-2998 colon
[3] = system: HOP-62 NSCLC
[4] = system: OVCAR-5 ovarian
[5] = system: RXF 393 renal
[6] = system: SF-295 CNS
[7] = system: SK-MEL-5 melanoma
[8] = system: SK-OV-3 ovarian
[9] = system: SR leukemia
[10] = system: LOX IMVI melanoma

`CNS(=O)(=O)NNS(=O)(=O)c1ccc(Cl)cc1` gave a TGI [1] greater than 100 µM, a TGI [2] greater than 100 µM and a TGI [3] greater than 100 µM. The TGI [4] was greater than 100 µM, the TGI [5] was greater than 100 µM and the TGI [6] was greater than 100 µM. For the same molecule, the TGI [7] was greater than 100 µM, the TGI [8] was greater than 100 µM and the TGI [9] was greater than 100 µM.

For `c1ccc(P(=Nc2ccccc2N=P(c2ccccc2)(c2ccccc2)c2ccccc2)(c2ccccc2)c2ccccc2)cc1`, the TGI [1] was 10.2 µM, the TGI [2] was 12.8 µM and the TGI [3] was 2.73 µM. The TGI [10] was 13.9 µM, the TGI [4] was 7.53 µM and the TGI [5] was 9 µM. The TGI [6] was 10.7 µM, the TGI [7] was 1.95 µM and the TGI [8] was 3.52 µM.

Molecule `COC(CN1C=C(Sc2ccccc2)CC1)OC` has a TGI [1] greater than 100 µM, a TGI [2] greater than 100 µM and a TGI [3] greater than 100 µM. The TGI [10] was 56.3 µM, the TGI [4] was greater than 100 µM and the TGI [5] was 66.6 µM. It also gave a TGI [6] of 71 µM, a TGI [7] of 34.7 µM and a TGI [8] of 93 µM.

Work on `COc1ccc(OC)c(C2SCC(=O)N2NC(=O)C(O)c2ccccc2)c1` (configuration not stated) yielded a GI50 [1] greater than 100 µM, a TGI [1] greater than 100 µM and a GI50 [2] greater than 100 µM. It also gave a TGI [2] greater than 100 µM, a GI50 [3] greater than 100 µM and a TGI [3] greater than 100 µM. The GI50 [10] was greater than 100 µM, the TGI [10] was greater than 100 µM and the GI50 [4] was greater than 100 µM. It also gave a TGI [4] greater than 100 µM, a GI50 [5] greater than 100 µM and a TGI [5] greater than 100 µM. For the same molecule, the GI50 [6] was greater than 100 µM, the TGI [6] was greater than 100 µM and the GI50 [7] was greater than 100 µM. For the same molecule, the TGI [7] was greater than 100 µM, the GI50 [8] was greater than 100 µM and the TGI [8] was greater than 100 µM.

For `CCCCCCN(N)C(=O)CC#N`, the TGI [1] was greater than 100 µM, the TGI [2] was greater than 100 µM and the TGI [3] was greater than 100 µM. It also gave a TGI [10] greater than 100 µM, a TGI [4] greater than 100 µM and a TGI [5] of 94.8 µM. It also gave a TGI [7] greater than 100 µM and a TGI [8] greater than 100 µM.

`C=C1CCC2[C@@H](CCC3[C@]2(C)CCC[C@]3(C)C(=O)OC)[C@@H]1CC=O` (some centres not stated) showed a TGI [1] of 82 µM, a TGI [2] greater than 100 µM and a GI50 [3] greater than 100 µM. The TGI [3] was greater than 100 µM, the GI50 [4] was 50.8 µM and the TGI [4] was greater than 100 µM. For the same molecule, the GI50 [6] was 50.2 µM, the TGI [6] was greater than 100 µM and the TGI [7] was 32.5 µM. For the same molecule, the GI50 [8] was greater than 100 µM and the TGI [8] was greater than 100 µM.

`COc1ccc(C=O)c(NC(=O)C(C)C)c1` was tested, and the TGI [1] was greater than 100 µM, the TGI [10] was greater than 100 µM and the TGI [4] was greater than 100 µM. The TGI [5] was 64.5 µM, the TGI [6] was greater than 100 µM and the TGI [7] was greater than 10 µM. For the same molecule, the TGI [8] was greater than 100 µM.

For `O=C(NC1CCCC1=O)c1ccccc1` (configuration not stated), the TGI [1] was greater than 100 µM, the TGI [3] was greater than 100 µM and the TGI [4] was greater than 100 µM. The TGI [5] was greater than 100 µM, the TGI [6] was greater than 100 µM and the TGI [7] was greater than 100 µM. It also gave a TGI [8] greater than 100 µM and a TGI [9] greater than 100 µM.

Molecule `CC1(C)OCC(C(O)C2OC(C)(C)OC2/C=N\O)O1` (configuration not stated) has a TGI [1] greater than 100 µM, a TGI [2] greater than 100 µM and a TGI [3] greater than 100 µM. It also gave a TGI [10] greater than 100 µM, a TGI [4] greater than 100 µM and a TGI [5] greater than 100 µM. It also gave a TGI [6] greater than 100 µM, a TGI [7] greater than 100 µM and a TGI [8] greater than 100 µM.

In the case of `CC1(C)OC2C(=O)C=C(COCc3ccccc3)C2O1` (configuration not stated), the TGI [1] is reported as greater than 100 µM, the TGI [3] is reported as 79 µM and the TGI [10] is reported as 53.5 µM. The TGI [4] was 84.6 µM, the TGI [5] was 45.8 µM and the TGI [6] was greater than 100 µM. The TGI [7] was 25.8 µM, the TGI [8] was 22 µM and the TGI [9] was greater than 100 µM.

Molecule `CCCCCCCCCCCCCP(=O)(O)NCC(N)=O` has a TGI [1] greater than 100 µM, a TGI [2] greater than 100 µM and a TGI [3] greater than 100 µM. For the same molecule, the TGI [10] was greater than 100 µM, the TGI [4] was greater than 100 µM and the TGI [5] was greater than 100 µM. It also gave a TGI [6] greater than 100 µM, a TGI [7] greater than 100 µM and a TGI [8] greater than 100 µM.

`O=c1[nH]cnc2c(C3NC(CO)C(O)C3O)c[nH]c12` (configuration not stated) was tested, and the GI50 [1] was greater than 100 µM, the TGI [1] was greater than 100 µM and the GI50 [2] was greater than 100 µM. For the same molecule, the TGI [2] was greater than 100 µM, the GI50 [3] was greater than 100 µM and the TGI [3] was greater than 100 µM. It also gave a GI50 [10] greater than 100 µM, a TGI [10] greater than 100 µM and a GI50 [4] greater than 100 µM. It also gave a TGI [4] greater than 100 µM, a GI50 [5] greater than 100 µM and a TGI [5] greater than 100 µM. For the same molecule, the GI50 [6] was greater than 100 µM, the TGI [6] was greater than 100 µM and the GI50 [7] was greater than 100 µM. The TGI [7] was greater than 100 µM, the GI50 [8] was greater than 100 µM and the TGI [8] was greater than 100 µM.

Molecule `CN(CCCCCl)P(=O)(OCCS(=O)(=O)CC(NC(=O)CCC(N)C(=O)O)C(=O)NC(C(=O)O)c1ccccc1)OCC1OC(n2cc(F)c(=O)[nH]c2=O)CC1O` (configuration not stated) has a GI50 [1] of less than 0.01 µM, a TGI [1] of 14 µM and a GI50 [3] of less than 0.01 µM. It also gave a TGI [3] of 6.99 µM, a GI50 [10] of less than 0.0127 µM and a TGI [10] of 52.2 µM. It also gave a GI50 [4] greater than 27.4 µM, a TGI [4] greater than 100 µM and a GI50 [5] of 4 µM. It also gave a TGI [5] greater than 100 µM, a GI50 [6] of 0.0368 µM and a TGI [6] greater than 53.8 µM. The GI50 [7] was 0.989 µM, the TGI [7] was 15.9 µM and the GI50 [8] was 41.3 µM. It also gave a TGI [8] greater than 100 µM and a TGI [9] greater than 90.9 µM.

In the case of `CC1NC(=O)C(NC(=O)c2cnc3ccccc3n2)COC(=O)C(C(C)C)N(C)C(=O)C2CSSCC(C(=O)N(C)C(C(C)C)C(=O)OCC(NC(=O)c3cnc4ccccc4n3)C(=O)NC(C)C(=O)N2C)N(C)C1=O` (configuration not stated) (I: Quinoxaline2carbonyl-SA[NMeC][NMeV] / II: Quinoxaline2carbonyl-SA[NMeC][NMeV]; ester I:1-II:C, I:C-II:1; disulfide I:3-II:3; configuration not given here), the TGI [1] is reported as 11.9 µM, the TGI [2] is reported as less than 0.01 µM and the TGI [3] is reported as 2.27 µM. The TGI [10] was 10.2 µM, the TGI [4] was greater than 4.64 µM and the TGI [5] was less than 0.01 µM. It also gave a TGI [6] of 16.9 µM and a TGI [8] of 6.87 µM.

In the case of `CC1CN1c1c(C(=O)/C=C/c2ccccc2)c(-c2ccccc2)nn(C)c1=O` (configuration not stated), the TGI [1] is reported as 33.7 µM, the TGI [2] is reported as 29.9 µM and the TGI [3] is reported as 46.3 µM. For the same molecule, the TGI [10] was 31.1 µM, the TGI [4] was 37 µM and the TGI [5] was 41.4 µM. It also gave a TGI [6] of 46.8 µM, a TGI [7] of 29.4 µM and a TGI [8] greater than 100 µM.

For `Nc1ccc(-c2nc3ccccc3[nH]2)c2ccccc12`, the GI50 [1] was 8.41 µM, the TGI [1] was 41.3 µM and the GI50 [2] was 2.46 µM. For the same molecule, the TGI [2] was 10.5 µM, the GI50 [3] was 6.16 µM and the TGI [3] was greater than 100 µM. For the same molecule, the GI50 [10] was 4.97 µM, the TGI [10] was 48.1 µM and the GI50 [4] was 6.08 µM. For the same molecule, the TGI [4] was greater than 53.5 µM, the GI50 [5] was 1.83 µM and the TGI [5] was 12.2 µM. The GI50 [6] was 1.56 µM, the TGI [6] was greater than 28.9 µM and the GI50 [7] was 1.65 µM. For the same molecule, the TGI [7] was 8.5 µM, the GI50 [8] was 3.23 µM and the TGI [8] was 57.5 µM.

`COc1ccc2c(c1)OC1=C(C(=O)OC1)C2c1cc(OC)c2c(c1)OCO2` (configuration not stated) gave a GI50 [1] of 0.267 µM, a TGI [1] greater than 100 µM and a GI50 [2] of 0.0424 µM. It also gave a TGI [2] greater than 35.1 µM, a GI50 [3] of 0.0411 µM and a TGI [3] greater than 100 µM. It also gave a GI50 [10] of 0.0683 µM, a TGI [10] greater than 100 µM and a GI50 [4] of 0.153 µM. The TGI [4] was greater than 100 µM, the GI50 [6] was 0.0283 µM and the TGI [6] was greater than 100 µM. The GI50 [7] was 0.0383 µM, the TGI [7] was 0.325 µM and the GI50 [8] was 0.0336 µM. The GI50 [9] was 0.0313 µM and the TGI [9] was greater than 100 µM.

Work on `N/N=C1\CC(=O)NC(=O)N1` yielded a TGI [1] greater than 100 µM, a TGI [3] greater than 100 µM and a TGI [10] greater than 100 µM. For the same molecule, the TGI [4] was greater than 100 µM, the TGI [5] was greater than 100 µM and the TGI [6] was greater than 100 µM. It also gave a TGI [7] greater than 100 µM, a TGI [8] greater than 100 µM and a TGI [9] greater than 100 µM.
